# Experimental data from paper PMC11459956, “Onametostat, a PfPRMT5 inhibitor, exhibits antimalarial activity to Plasmodium falciparum” (Antimicrobial Agents and Chemotherapy, 2024).
# Biological target: T1, PfPRMT5 (Plasmodium falciparum, UniProt Q8ID96)
# T1 construct: gene PF3D7_1361000; protein A part cut by TEV, protein C tag kept; associated parasite proteins may co-purify
# T1 sequence (Q8ID96 1-724): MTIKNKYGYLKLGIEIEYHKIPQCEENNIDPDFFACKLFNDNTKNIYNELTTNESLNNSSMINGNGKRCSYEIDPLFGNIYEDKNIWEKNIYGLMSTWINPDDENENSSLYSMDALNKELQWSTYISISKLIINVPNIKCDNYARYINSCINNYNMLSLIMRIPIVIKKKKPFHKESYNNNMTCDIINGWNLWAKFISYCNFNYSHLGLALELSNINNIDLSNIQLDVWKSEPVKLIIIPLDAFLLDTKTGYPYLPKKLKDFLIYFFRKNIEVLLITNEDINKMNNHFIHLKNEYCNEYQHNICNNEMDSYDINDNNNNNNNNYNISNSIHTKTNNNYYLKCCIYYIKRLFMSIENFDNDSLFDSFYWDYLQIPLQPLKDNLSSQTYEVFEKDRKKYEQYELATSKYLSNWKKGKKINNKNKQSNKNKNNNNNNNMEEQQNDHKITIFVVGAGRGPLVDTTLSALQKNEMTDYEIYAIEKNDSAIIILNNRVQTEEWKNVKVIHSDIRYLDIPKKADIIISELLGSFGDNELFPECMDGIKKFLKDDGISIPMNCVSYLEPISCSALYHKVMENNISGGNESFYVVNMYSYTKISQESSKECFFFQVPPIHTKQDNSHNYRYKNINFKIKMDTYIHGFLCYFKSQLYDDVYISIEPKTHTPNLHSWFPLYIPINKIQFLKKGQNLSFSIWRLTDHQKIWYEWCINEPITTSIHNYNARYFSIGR
# Test: MTase-Glo luminescence methyltransferase assay
# Assay type: biochemical
# Conditions: 30 min pre-incubation at 37 °C, 115 µM PfPRMT5 as printed, 10 µM SAM, 0.1 µM human recombinant mononucleosomes, pH 8.0, 60 min
smiles,measurement,value
Nc1nc2cc(CC[C@H]3C[C@@H](n4ccc5c(N)ncnc54)[C@H](O)[C@@H]3O)ccc2cc1Br [onametostat],% reduction of activity at 1:1 molar ratio PfPRMT5:onametostat,~ 48%
